According to ChEMBL document CHEMBL6153083, “Synthesis, Structural Modification, and Antismall Cell Lung Cancer Activity of 3-Arylisoquinolines with Dual Inhibitory Activity on Topoisomerase I and II” (J Med Chem, 2025):
Activity calls are given as the source filed them. The rule behind the calls is not given here.

How the values were obtained:
NCI-H1048 [1] = assay: Inhibition of cell proliferation in human NCI-H1048 cells incubated for 24 hrs by EdU incorporation assay; assay type: functional, cell-based; details: dose 0.375-3 µM
NCI-H1048 [2] = assay: Induction of cell cycle arrest in human NCI-H1048 cells assessed as accumulation at S phase incubated for 48 hrs by PI staining based flow cytometry; assay type: functional
NCI-H446 [3] = assay: Antitumor activity against human NCI-H446 cells xenografted in BALB/c nude mouse at 20 mg/kg, ip for 21 days relative to control; assay type: functional; details: NCI-H446, 504 h, time 21 day, read-out: TGI
NCI-H446 [4] = assay: Inhibition of cell proliferation in human NCI-H446 cells incubated for 24 hrs by EdU incorporation assay; assay type: functional, cell-based; details: dose 0.375-3 µM
NCI-H446 [5] = assay: Induction of apoptosis in human NCI-H446 cells assessed as increase in cleaved caspase-3 level incubated for 48 hrs by Western blot analysis; assay type: functional, cell-based; details: dose 1-8 µM
[6] = Tmax in Sprague-Dawley rat at 10 mg/kg, ip measured after 24 hrs by LC-MS/MS analysis; assay type: ADME, organism-based; details: in vivo
NCI-H446 [7] = assay: Antitumor activity against human NCI-H446 cells xenografted in BALB/c nude mouse assessed as decrease in tumor volume at 10 to 20 mg/kg, ip for 21 days; assay type: functional, organism-based; details: dose 10-20 mg/kg, time 21.0 day
NCI-H446 [8] = assay: Antitumor activity against human NCI-H446 cells xenografted in BALB/c nude mouse at 10 mg/kg, ip for 21 days relative to control; assay type: functional; details: NCI-H446, 504 h, time 21 day, read-out: TGI
NCI-H446 [9] = assay: Induction of apoptosis in human NCI-H446 cells assessed as increase in cleaved caspase-9 level incubated for 48 hrs by Western blot analysis; assay type: functional, cell-based; details: dose 1-8 µM
[10] = Inhibition of PI3K/AKT/mTOR signalling pathway in human NCI-H446 cells assessed as decrease in AKT level at 1 to 8 uM incubated for 48 hrs by Western blot analysis; assay type: cell-based; details: dose 1-8 µM
NCI-H1048 [11] = assay: Induction of apoptosis in human NCI-H1048 cells assessed as increase in cleaved caspase-3 level incubated for 48 hrs by Western blot analysis; assay type: functional, cell-based
[12] = Antiproliferative activity against human BEAS-2B cells incubated for 72 hrs; assay type: toxicity, cell-based
NCI-H446 [13] = assay: Induction of apoptosis in human NCI-H446 cells assessed as chromatin condensation at 1 to 8 uM incubated for 48 hrs by Geimsa staining based analysis; assay type: functional, cell-based; details: dose 1-8 µM
NCI-H446 [14] = assay: Induction of apoptosis in human NCI-H446 cells assessed as formation of membrane blebbing at 1 to 8 uM incubated for 48 hrs by Geimsa staining based analysis; assay type: functional, cell-based; details: dose 1-8 µM
[15] = Toxicity in BALB/c nude mouse xenografted with human NCI-H446 cells assessed as deleterious effect in spleen at 10 to 20 mg/kg, ip for 21 days by H and E staining based analysis; assay type: organism-based; details: in vivo, 504 h, dose 10-20 mg/kg, time 21 day
[16] = Antiproliferative activity against human L02 cells incubated for 72 hrs; assay type: toxicity, cell-based
NCI-H446 [17] = assay: Inhibition of cell migration in human NCI-H446 cells incubated for 24 hrs by wound-healing assay; assay type: functional, cell-based; details: dose 0.375-3 µM
NCI-H1048 [18] = assay: Antiproliferative activity against human NCI-H1048 cells incubated for 72 hrs; assay type: functional, cell-based; details: NCI-H1048, 72 h
NCI-H1048 [19] = assay: Inhibition of cell migration in human NCI-H1048 cells incubated for 24 hrs by wound-healing assay; assay type: functional, cell-based; details: dose 0.375-3 µM
NCI-H1048 [20] = assay: Inhibition of clonogenesis in human NCI-H1048 cells incubated for 14 to 21 days by crystal violet staining based analysis; assay type: functional, cell-based; details: dose 0.375-3 µM, time 14-21 day
[21] = Toxicity in BALB/c nude mouse xenografted with human NCI-H446 cells assessed as body weight change at 10 to 20 mg/kg, ip for 21 days; assay type: organism-based; details: in vivo, 504 h, dose 10-20 mg/kg, time 21 day
NCI-H1048 [22] = assay: Inhibition of cell invasion in human NCI-H1048 cells incubated for 24 hrs by transwell assay; assay type: functional, cell-based
Homo sapiens = species on record: Homo sapiens; assay: Inhibition of Topo II (unknown origin) relaxation activity using pBR322 plasmid DNA as substrate at 25 to 100 uM incubated for 30 mins in presence of ATP; details: dose 25-100 µM
[23] = Antiproliferative activity against human NCI-H196 cells incubated for 72 hrs; assay type: functional, cell-based; details: NCI-H196, 72 h
NCI-H1048 [24] = assay: Induction of DNA damage in human NCI-H1048 cells incubated for 48 hrs by comet assay; assay type: functional, cell-based; details: dose 1-8 µM
[25] = Acute toxicity in Kunming mouse assessed as change in body weight at 300 mg/kg, ip measured for 10 days; assay type: organism-based; details: in vivo, 240 h, time 10 day
[26] = target: T1, DNA topoisomerase 1 (Homo sapiens) (UniProt P11387); assay: Inhibition of Topo I (unknown origin) relaxation activity using pBR322 plasmid DNA as substrate at 25 to 100 uM incubated for 30 mins; details: dose 25-100 µM
T1 sequence (whole entry): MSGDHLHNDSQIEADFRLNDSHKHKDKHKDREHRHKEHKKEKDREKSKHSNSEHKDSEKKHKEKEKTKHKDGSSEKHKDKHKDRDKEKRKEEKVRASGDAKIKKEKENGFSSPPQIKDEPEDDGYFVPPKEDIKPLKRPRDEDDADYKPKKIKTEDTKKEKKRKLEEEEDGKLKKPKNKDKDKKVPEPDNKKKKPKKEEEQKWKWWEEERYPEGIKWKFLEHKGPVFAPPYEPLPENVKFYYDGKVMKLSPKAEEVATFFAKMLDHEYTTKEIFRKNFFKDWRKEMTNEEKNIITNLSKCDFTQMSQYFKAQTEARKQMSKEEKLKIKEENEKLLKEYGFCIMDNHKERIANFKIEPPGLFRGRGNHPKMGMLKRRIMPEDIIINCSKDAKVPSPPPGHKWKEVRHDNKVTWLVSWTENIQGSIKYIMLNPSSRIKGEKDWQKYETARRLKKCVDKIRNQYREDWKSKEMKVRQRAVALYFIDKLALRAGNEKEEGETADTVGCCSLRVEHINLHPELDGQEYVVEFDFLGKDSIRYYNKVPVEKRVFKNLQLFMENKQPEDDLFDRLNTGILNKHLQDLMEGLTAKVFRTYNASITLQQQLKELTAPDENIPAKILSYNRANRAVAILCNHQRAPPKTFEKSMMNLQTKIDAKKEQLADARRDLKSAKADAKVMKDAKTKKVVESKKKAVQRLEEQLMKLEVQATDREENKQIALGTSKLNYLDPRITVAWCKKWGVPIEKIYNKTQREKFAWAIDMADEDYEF

[27] = Inhibition of PI3K/AKT/mTOR signalling pathway in human NCI-H446 cells assessed as decrease in mTOR level at 1 to 8 uM incubated for 48 hrs by Western blot analysis; assay type: cell-based; details: dose 1-8 µM
NCI-H1048 [28] = assay: Induction of apoptosis in human NCI-H1048 cells assessed as reduction in cell viability incubated for 48 hrs by Geimsa staining based analysis; assay type: functional
NCI-H446 [29] = assay: Antiproliferative activity against human NCI-H446 cells incubated for 72 hrs; assay type: functional, cell-based; details: NCI-H446, 72 h
[30] = Toxicity in BALB/c nude mouse xenografted with human NCI-H446 cells assessed as deleterious effect in lungs at 10 to 20 mg/kg, ip for 21 days by H and E staining based analysis; assay type: organism-based; details: in vivo, 504 h, dose 10-20 mg/kg, time 21 day
NCI-H446 [31] = assay: Induction of apoptosis in human NCI-H446 cells assessed as decrease in Bcl-2 level incubated for 48 hrs by Western blot analysis; assay type: functional, cell-based; details: dose 1-8 µM

## CCC1CCCC(C)N1Cc1cc2c(cc1-c1cc3ccc4c(c3cn1)OCO4)OCO2 (centres undefined)
NCI-H1048 [1]
  inhibition: Dose-dependent-effect; Compound Effect Surpassed Etoposide Effect
NCI-H1048 [2]
  Activity: Dose-dependent-effect
NCI-H446 [3]
  inhibition in vivo at 20 mg/kg: 85.5%
NCI-H446 [4]
  inhibition: Dose-dependent-effect; Exhibited Similar Inhibitory Effect To That Of Etoposide At Same Concentration
NCI-H446 [5]
  Activity: Dose-dependent-effect
[6]
  Tmax: 15 min
NCI-H446 [7]
  Activity: Active; Exhibited Markedly Slow Growth Rate
NCI-H446 [8]
  inhibition in vivo at 10 mg/kg: 69.2%
NCI-H446 [9]
  Activity: Dose-dependent-effect
[10]
  inhibition: Active
NCI-H1048 [11]
  Activity: Dose-dependent-effect
[12]
  IC50 at 72 h: > 100 µM
NCI-H446 [13]
  Activity: Active
NCI-H446 [14]
  Activity: Active
[15]
  Activity: Non-toxic
[16]
  IC50 at 72 h: 26.1 µM
NCI-H446 [17]
  inhibition: Dose-dependent-effect
NCI-H1048 [18]
  IC50: 2.45 µM
NCI-H1048 [19]
  inhibition: Dose-dependent-effect
NCI-H1048 [20]
  inhibition: Dose-dependent-effect
[21]
  Activity: Non-toxic
NCI-H1048 [22]
  inhibition: Dose-dependent-effect
Homo sapiens
  inhibition: Active; Exhibited Stronger Activity Against Topo Ii Compared To Topo I
[23]
  IC50: 13.9 µM
NCI-H1048 [24]
  Activity: Dose-dependent-effect
[25]
  Activity: Non-toxic
[26]
  inhibition: Active
[27]
  inhibition: Active
NCI-H1048 [28]
  Activity: Dose-dependent-effect
NCI-H446 [29]
  IC50: 1.32 µM
[30]
  Activity: Non-toxic
NCI-H446 [31]
  Activity: Dose-dependent-effect

## CC1CC(C)CN(Cc2cc3c(cc2-c2cc4ccc5c(c4cn2)OCO5)OCO3)C1 (centres undefined)
NCI-H1048 [1]
  inhibition: Dose-dependent-effect; Compound Effect Surpassed Etoposide Effect
NCI-H1048 [2]
  Activity: Dose-dependent-effect
NCI-H446 [3]
  inhibition in vivo at 20 mg/kg: 82.2%
NCI-H446 [4]
  inhibition: Dose-dependent-effect; Exhibited Similar Inhibitory Effect To That Of Etoposide At Same Concentration
NCI-H446 [5]
  Activity: Dose-dependent-effect
[6]
  Tmax: 15 min
NCI-H446 [7]
  Activity: Active; Exhibited Markedly Slow Growth Rate
NCI-H446 [8]
  inhibition in vivo at 10 mg/kg: 75.2%
NCI-H446 [9]
  Activity: Dose-dependent-effect
[10]
  inhibition: Active
NCI-H1048 [11]
  Activity: Dose-dependent-effect
[12]
  IC50 at 72 h: 27.5 µM
NCI-H446 [13]
  Activity: Active
NCI-H446 [14]
  Activity: Active
[15]
  Activity: Non-toxic
[16]
  IC50 at 72 h: 29.1 µM
NCI-H446 [17]
  inhibition: Dose-dependent-effect; Exhibited Superior Inhibitory Effect Compared To Etoposide At Same Concentration
NCI-H1048 [18]
  IC50: 1.42 µM
NCI-H1048 [19]
  inhibition: Dose-dependent-effect; Exhibited Superior Inhibitory Effect Compared To Etoposide At Same Concentration
NCI-H1048 [20]
  inhibition: Dose-dependent-effect; Potent Inhibitory Effect At Equivalent Efficacy As Etoposide
[21]
  Activity: Non-toxic
NCI-H1048 [22]
  inhibition: Dose-dependent-effect; Displayed Stronger Inhibitory Effect Than Etoposide
Homo sapiens
  inhibition: Active; Exhibited Stronger Activity Against Topo Ii Compared To Topo I
[23]
  IC50: 9.51 µM
NCI-H1048 [24]
  Activity: Dose-dependent-effect
[25]
  Activity: Non-toxic
[26]
  inhibition: Active
[27]
  inhibition: Active
NCI-H1048 [28]
  Activity: Dose-dependent-effect
NCI-H446 [29]
  IC50: 1.3 µM
[30]
  Activity: Non-toxic
NCI-H446 [31]
  Activity: Dose-dependent-effect
